Experimental data as given in patent US20200000834A1, “POLYPHENOL GLYCOSIDE-CONTAINING COMPOSITION” (SUNSTAR INC., priority 2018, published 2020).

What was measured:
[1] = tested on: AMPK; conditions: known as; cited from earlier work
[2] = tested on: ACC (acetyl-CoA carboxylase); test: ACC phosphorylation (pACC/tACC) by western blotting in C2C12 myotubes; assay type: cell-based, mouse; conditions: single use or combination in a specific mass ratio
Description: The resultant was used in the following experiment. Since trifolin and astragalin have the same molecular weights, their concentration ratios are the same as the mass ratios. A medium without any addition was used as a negative control, and a medium containing AICAR (final concentration: 2 mM) was used as a positive control. AICAR is a substance that is metabolized to an analog of AMP when taken in a cell.
A mouse skeletal myotube cell line (C2C12) was inoculated in a 6-well cell culture plate. The cell line was cultured in a DMEM medium containing 10% fetal bovine serum and a 1% antibacterial agent at 37° C. in the presence of 5% carbon dioxide for 3 days. […] The protein concentration of each supernatant was measured. […]
After SDS-PAGE, the protein was transferred to a PVDF membrane, and blocking was performed. […] After sufficient washing, chemiluminescence (band) on the membrane was detected using a CCD camera imager (produced by GE Healthcare) (FIG. 1). The band intensity was quantified using image J (NIH). The degree of the activity (i.e., “phosphorylated AMPK/total AMPK (pAMPK/tAMPK)” or “phosphorylated ACC/total ACC (pACC/tACC)”) was expressed as a relative value with the value of the negative control being defined as 1 (FIG. 2a and FIG. 2b).

| SMILES | AMPK activation in skeletal muscle [1] | ACC phosphorylation promotion (ACC inactivation promotion) effects [2] |
| --- | --- | --- |
| NC(=O)c1ncn([C@@H]2O[C@H](CO)[C@@H](O)[C@H]2O)c1N [AICAR] | significantly activating AMPK |  |
| O=c1c(O[C@@H]2O[C@H](CO)[C@H](O)[C@H](O)[C@H]2O)c(-c2ccc(O)cc2)oc2cc(O)cc(O)c12 [trifolin, kaempferol-3-O-galactoside] |  | almost no effects |
